≈ marks a conversion by molar mass, not a printed value.
Tests used:
Escherichia coli [1] = test: Antibacterial activity against Escherichia coli after 30 hrs by broth microdilution method; format: functional, organism-based
[2] = Mean residence time (0 to infinity) in Beagle dog at 2.5 mg/kg, im; format: ADME, organism-based, Canis lupus familiaris; set-up: dose 2.5 mg/kg, route intramuscular; details: in vivo
[3] = Bioavailability in Beagle dog at 2.5 mg/kg, im; format: ADME, organism-based, Canis lupus familiaris; details: in vivo
[4] = Ratio of AUC (0 to 24 hrs) to MIC in Beagle dog infected with Staphylococcus aureus at 2.5 mg/kg, im; format: functional; details: route intramuscular
[5] = Volume of distribution at steady state in Beagle dog at 2.5 mg/kg, iv; format: ADME, organism-based, Canis lupus familiaris; set-up: dose 2.5 mg/kg, route intravenous; details: in vivo
Staphylococcus aureus [6] = test: Antibacterial activity against Staphylococcus aureus after 30 hrs by broth microdilution method; format: functional, organism-based
Canis familiaris = test: Mean absorption time in Beagle dog at 2.5 mg/kg, im; format: ADME, organism-based, Canis lupus familiaris; set-up: dose 2.5 mg/kg, route intramuscular; details: in vivo
[7] = Mean residence time (0 to 24 hrs) in Beagle dog at 2.5 mg/kg, iv; format: ADME, organism-based, Canis lupus familiaris; set-up: dose 2.5 mg/kg, route intravenous; details: in vivo
[8] = AUC (0 to infinity) in Beagle dog at 2.5 mg/kg, im; format: ADME, organism-based, Canis lupus familiaris; set-up: time infinity, dose 2.5 mg/kg, route intramuscular; details: plasma
[9] = Apparent volume of distribution in Beagle dog at 2.5 mg/kg, iv; format: ADME, organism-based, Canis lupus familiaris; set-up: dose 2.5 mg/kg, route intravenous; details: in vivo, read-out: Vz
[10] = Ratio of AUC (0 to 24 hrs) to MIC50 in Beagle dog infected with Staphylococcus intermedius clinical isolate at 2.5 mg/kg, im; format: functional; details: route intramuscular
Staphylococcus aureus [11] = test: Antibacterial activity against Staphylococcus aureus ATCC 29213 by broth microdilution method; format: functional
[12] = Ratio of AUC (0 to 24 hrs) to MIC in Beagle dog infected with Staphylococcus intermedius at 2.5 mg/kg, im; format: functional; details: route intramuscular
Staphylococcus aureus [13] = test: Antibacterial activity against Staphylococcus aureus by broth microdilution method; format: functional
[14] = Terminal half life in Beagle dog at 2.5 mg/kg, im; format: ADME, organism-based, Canis lupus familiaris; set-up: dose 2.5 mg/kg, route intramuscular; details: in vivo, read-out: beta t1/2 (converted)
Proteus mirabilis [15] = test: Antibacterial activity against Proteus mirabilis by broth microdilution method; format: functional
[16] = T>MIC in Beagle dog infected with Staphylococcus aureus at 2.5 mg/kg, im; format: functional; details: route intramuscular
[17] = system: Staphylococcus intermedius; test: Antibacterial activity against Staphylococcus intermedius after 30 hrs by broth microdilution method; format: functional, organism-based
[18] = Ratio of AUC (0 to 24 hrs) to MIC for bactericidal action in Beagle dog infected with Staphylococcus intermedius clinical isolate at 2.5 mg/kg, im; format: functional; details: route intramuscular
[19] = Clearance in Beagle dog at 2.5 mg/kg, iv; format: ADME, organism-based, Canis lupus familiaris; set-up: dose 2.5 mg/kg, route intravenous; details: in vivo
[20] = Elimination rate constant in Beagle dog at 2.5 mg/kg, iv; format: ADME, organism-based, Canis lupus familiaris; set-up: dose 2.5 mg/kg, route intravenous; details: in vivo
[21] = Ratio of AUC (0 to 24 hrs) to MIC in Beagle dog infected with Staphylococcus aureus at 2.5 mg/kg, iv; format: functional
[22] = T>MIC in Beagle dog infected with Staphylococcus aureus at 2.5 mg/kg, iv; format: functional
Escherichia coli [23] = test: Antibacterial activity against Escherichia coli by broth microdilution method; format: functional
[24] = Ratio of AUC (0 to 24 hrs) to MIC in Beagle dog infected with Proteus mirabilis at 2.5 mg/kg, im; format: functional; details: route intramuscular
[25] = Ratio of AUC (0 to 24 hrs) to MIC in Beagle dog infected with Escherichia coli at 2.5 mg/kg, iv; format: functional
[26] = AUC (0 to 24 hrs) in Beagle dog at 2.5 mg/kg, im; format: ADME, organism-based, Canis lupus familiaris; set-up: time < 24 hr, dose 2.5 mg/kg, route intramuscular; details: plasma
[27] = Mean residence time (0 to infinity) in Beagle dog at 2.5 mg/kg, iv; format: ADME, organism-based, Canis lupus familiaris; set-up: dose 2.5 mg/kg, route intravenous; details: in vivo
[28] = Mean residence time (0 to 24 hrs) in Beagle dog at 2.5 mg/kg, im; format: ADME, organism-based, Canis lupus familiaris; set-up: dose 2.5 mg/kg, route intramuscular; details: in vivo
[29] = system: Staphylococcus intermedius; test: Antibacterial activity against Staphylococcus intermedius clinical isolate infected in Beagle dog assessed as bacterial load at 2.5 mg/kg, im after 24 hrs; format: functional; details: route intramuscular
[30] = T>MIC in Beagle dog infected with Proteus mirabilis at 2.5 mg/kg, im; format: functional; details: route intramuscular
[31] = Ratio of Cmax to MIC in Beagle dog infected with Proteus mirabilis at 2.5 mg/kg, im; format: functional; details: route intramuscular
[32] = AUC (0 to 24 hrs) in Beagle dog at 2.5 mg/kg, iv; format: ADME, organism-based, Canis lupus familiaris; set-up: time < 24 hr, dose 2.5 mg/kg, route intravenous; details: plasma
[33] = Ratio of Cmax to MIC in Beagle dog infected with Staphylococcus intermedius at 2.5 mg/kg, im; format: functional; details: route intramuscular
[34] = Ratio of Cmax to MIC in Beagle dog infected with Staphylococcus aureus at 2.5 mg/kg, im; format: functional; details: route intramuscular
[35] = Elimination rate constant in Beagle dog at 2.5 mg/kg, im; format: ADME, organism-based, Canis lupus familiaris; set-up: dose 2.5 mg/kg, route intramuscular; details: in vivo
[36] = system: Staphylococcus intermedius; test: Antibacterial activity against Staphylococcus intermedius by broth microdilution method; format: functional
Proteus mirabilis [37] = test: Antibacterial activity against Proteus mirabilis after 30 hrs by broth microdilution method; format: functional, organism-based
[38] = T>MIC in Beagle dog infected with Staphylococcus intermedius at 2.5 mg/kg, im; format: functional; details: route intramuscular
[39] = T>MIC in Beagle dog infected with Escherichia coli at 2.5 mg/kg, iv; format: functional
[40] = Ratio of Cmax to MIC in Beagle dog infected with Escherichia coli at 2.5 mg/kg, im; format: functional; details: route intramuscular
[41] = Ratio of AUC (0 to 24 hrs) to MIC in Beagle dog infected with Staphylococcus intermedius at 2.5 mg/kg, iv; format: functional
[42] = Cmax in Beagle dog at 2.5 mg/kg, im; format: ADME, organism-based, Canis lupus familiaris; set-up: dose 2.5 mg/kg, route intramuscular; details: in vivo
[43] = T>MIC in Beagle dog infected with Escherichia coli at 2.5 mg/kg, im; format: functional; details: route intramuscular
[44] = Ratio of AUC (0 to 24 hrs) to MIC for bacteriostatic action in Beagle dog infected with Staphylococcus intermedius clinical isolate at 2.5 mg/kg, im; format: functional; details: route intramuscular
[45] = Ratio of AUC (0 to 24 hrs) to MIC for bacterial elimination in Beagle dog infected with Staphylococcus intermedius clinical isolate at 2.5 mg/kg, im; format: functional; details: route intramuscular
[46] = T>MIC in Beagle dog infected with Staphylococcus intermedius at 2.5 mg/kg, iv; format: functional
[47] = T>MIC in Beagle dog infected with Proteus mirabilis at 2.5 mg/kg, iv; format: functional
[48] = Terminal half life in Beagle dog at 2.5 mg/kg, iv; format: ADME, organism-based, Canis lupus familiaris; set-up: dose 2.5 mg/kg, route intravenous; details: in vivo, read-out: beta t1/2 (converted)
[49] = Ratio of AUC (0 to 24 hrs) to MIC in Beagle dog infected with Escherichia coli at 2.5 mg/kg, im; format: functional; details: route intramuscular
[50] = AUC (0 to infinity) in Beagle dog at 2.5 mg/kg, iv; format: ADME, organism-based, Canis lupus familiaris; set-up: time infinity, dose 2.5 mg/kg, route intravenous; details: plasma
[51] = Tmax in Beagle dog at 2.5 mg/kg, im; format: ADME, organism-based, Canis lupus familiaris; set-up: dose 2.5 mg/kg, route intramuscular; details: in vivo
[52] = Ratio of AUC (0 to 24 hrs) to MIC in Beagle dog infected with Proteus mirabilis at 2.5 mg/kg, iv; format: functional

SMILES: C[C@@H]1CN(c2c(F)c(F)c3c(=O)c(C(=O)O)cn(C4CC4)c3c2F)C[C@H](C)N1 [ORBIFLOXACIN]
- Activity (Escherichia coli [1]): Dose-dependent effect
- MRT inf [2]: 5.69 h
- bioavailability [3]: 100%
- RatioAUC/MIC [4]: 31.1
- Vd [5]: 1.61 L/kg
- Activity (Staphylococcus aureus [6]): Dose-dependent effect
- MAT (Canis familiaris): 0.51 h
- MRT last [7]: 4.71 h
- AUC(0-inf) [8]: 8490 ng·h/mL
- Vd [9]: 1.95 L/kg
- Ratio [10]: 29
- MIC (Staphylococcus aureus [11]): 0.5 µg/mL (≈ 1.26 µM)
- RatioAUC/MIC [12]: 31.1
- MIC (Staphylococcus aureus [13]): 0.25 µg/mL (≈ 0.632 µM)
- half-life [14]: 3.95 h
- MIC (Proteus mirabilis [15]): 0.5 µg/mL (≈ 1.26 µM)
- T>MIC [16]: 9.15 h
- Activity [17]: Dose-dependent effect
- RatioAUC/MIC [18]: 31.8
- clearance [19]: 5.17 mL/min/kg
- k el [20]: 4.72e-05 s⁻¹
- RatioAUC/MIC [21]: 32.3
- T>MIC [22]: 8.75 h
- MIC (Escherichia coli [23]): 0.06 µg/mL (≈ 0.152 µM)
- RatioAUC/MIC [24]: 15.5
- RatioAUC/MIC [25]: 134.6
- AUC(0-t) at 24 h [26]: 8370 ng·h/mL
- MRT inf [27]: 5.13 h
- MRT last [28]: 5.31 h
- CFU/ml [29]: 2.06
- T>MIC [30]: 6.5 h
- Ratio [31]: 2.3
- AUC(0-t) at 24 h [32]: 8070 ng·h/mL
- Ratio [33]: 4.61
- Ratio [34]: 4.61
- k el [35]: 4.72e-05 s⁻¹
- MIC [36]: 0.25 µg/mL (≈ 0.632 µM)
- Activity (Proteus mirabilis [37]): Dose-dependent effect
- T>MIC [38]: 9.15 h
- T>MIC [39]: 21.1 h
- Ratio [40]: 19.1
- RatioAUC/MIC [41]: 32.3
- Cmax [42]: 1150 ng/mL
- T>MIC [43]: 21.3 h
- RatioAUC/MIC [44]: 26.7
- RatioAUC/MIC [45]: 40
- T>MIC [46]: 8.75 h
- T>MIC [47]: 5.6 h
- half-life [48]: 4.23 h
- RatioAUC/MIC [49]: 129.8
- AUC(0-inf) [50]: 8210 ng·h/mL
- Tmax [51]: 1.15 h
- RatioAUC/MIC [52]: 16.1
